Results: patent US20080287490A1, “Bis-pyridino containing compounds for the use in the treatment of CNS pathologies” (UNIVERSITY OF KENTUCKY RESEARCH FOUNDATION, priority 2005, published 2008)
Where two headings read alike, the source gives them in different places.

Legend:
[1] = target: T1, α7-type neuronal nicotinic acetylcholine receptors (Rattus norvegicus, UniProt Q05941); assay: biochemical; settings: rat brain membranes, 2.5 nM [^3H]-MLA; read-out: Ki, [^3H]MLA binding
T1 construct: Rat brain was dissected into the whole brain tissue without cortex, striatum and cerebellum; from tissue; host or cells: rat brain (without cortex, striatum, cerebellum) membranes
T1 sequence (Q05941 23-502): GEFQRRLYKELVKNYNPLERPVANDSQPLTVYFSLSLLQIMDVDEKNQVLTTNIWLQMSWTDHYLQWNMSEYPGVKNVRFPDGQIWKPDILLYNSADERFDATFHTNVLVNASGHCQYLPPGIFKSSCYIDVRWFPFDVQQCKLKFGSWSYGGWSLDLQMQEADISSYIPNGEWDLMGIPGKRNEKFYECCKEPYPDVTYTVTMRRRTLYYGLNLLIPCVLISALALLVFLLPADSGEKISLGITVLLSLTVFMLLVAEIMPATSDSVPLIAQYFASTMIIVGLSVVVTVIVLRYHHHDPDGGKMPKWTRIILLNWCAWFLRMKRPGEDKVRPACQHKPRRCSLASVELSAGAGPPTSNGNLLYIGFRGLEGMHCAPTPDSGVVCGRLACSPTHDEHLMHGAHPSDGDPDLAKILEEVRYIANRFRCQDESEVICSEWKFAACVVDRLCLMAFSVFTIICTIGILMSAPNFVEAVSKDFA

[2] = target: T2, Rat Striatal Nicotinic Acetylcholine Receptors ([^3H]nicotine binding sites) (Rattus norvegicus, UniProt P09483+P12390); assay: biochemical; settings: read-out: Ki, specific binding of [^3H]-nicotine
T2 construct: Striata from two rats were dissected, pooled, and homogenized; from tissue; host or cells: rat striatum membranes
T2 sequence (P09483 31-630): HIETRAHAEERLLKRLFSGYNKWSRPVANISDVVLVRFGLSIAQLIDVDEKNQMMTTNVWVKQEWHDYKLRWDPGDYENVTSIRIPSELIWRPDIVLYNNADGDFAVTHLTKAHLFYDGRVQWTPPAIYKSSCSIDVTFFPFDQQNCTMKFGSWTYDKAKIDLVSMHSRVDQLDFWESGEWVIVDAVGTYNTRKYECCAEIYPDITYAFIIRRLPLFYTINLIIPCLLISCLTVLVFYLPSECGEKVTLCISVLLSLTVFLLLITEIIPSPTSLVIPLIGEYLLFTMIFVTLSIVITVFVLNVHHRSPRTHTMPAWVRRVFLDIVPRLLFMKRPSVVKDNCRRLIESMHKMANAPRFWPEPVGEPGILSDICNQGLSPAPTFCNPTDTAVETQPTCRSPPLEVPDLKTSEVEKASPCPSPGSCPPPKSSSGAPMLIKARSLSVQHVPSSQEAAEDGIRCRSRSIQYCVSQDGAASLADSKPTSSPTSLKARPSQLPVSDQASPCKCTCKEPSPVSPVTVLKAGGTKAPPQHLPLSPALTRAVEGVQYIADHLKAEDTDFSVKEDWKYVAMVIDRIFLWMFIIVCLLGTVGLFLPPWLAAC
T2 sequence (P12390 25-500): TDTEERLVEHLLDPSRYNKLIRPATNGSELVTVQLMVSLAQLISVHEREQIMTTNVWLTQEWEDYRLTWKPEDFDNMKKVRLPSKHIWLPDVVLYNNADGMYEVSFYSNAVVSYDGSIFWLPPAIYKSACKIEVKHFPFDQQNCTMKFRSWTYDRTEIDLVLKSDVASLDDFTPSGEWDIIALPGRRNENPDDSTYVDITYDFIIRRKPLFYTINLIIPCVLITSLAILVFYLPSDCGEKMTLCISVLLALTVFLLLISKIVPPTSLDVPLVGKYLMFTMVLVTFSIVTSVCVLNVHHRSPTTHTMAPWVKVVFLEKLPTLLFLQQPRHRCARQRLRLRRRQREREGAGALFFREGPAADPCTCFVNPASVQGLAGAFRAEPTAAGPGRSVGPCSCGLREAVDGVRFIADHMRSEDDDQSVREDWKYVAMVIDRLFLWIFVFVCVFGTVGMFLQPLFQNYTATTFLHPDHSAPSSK
Protocol: Striata from two rats were dissected, pooled, and homogenized with a Tekmar polytron in 10 volumes of ice-cold modified Krebs-HEPES buffer (20 mM HEPES, 118 mM NaCl, 4.8 mM KCl, 2.5 mM CaCl2, 1.2 mM MgSO4, adjusted to pH 7.5). The homogenates were incubated at 37° C. for five minutes and centrifuged at 15,000 g for 20 minutes. The pellet was resuspended in ten volumes of ice-cold MilliQ water, incubated for five minutes at 37° C., and centrifuged at 15,000 g for 20 minutes The second pellet was then resuspended in ten volumes of fresh ice-cold 10% Krebs-HEPES buffer, incubated at 37° C., and centrifuged at 15,000 g for 20 minutes. The latter sequence of resuspension, incubation, and centrifugation was repeated. The pellet was frozen under fresh 10% Krebs-HEPES buffer and stored at −40° C. until assay. Upon assay, the pellet was resuspended in the Krebs-HEPES buffer, incubated at 37° C. for five minutes, and centrifuged at 15,000 g for 20 minutes. The final pellet was resuspended in 3.6 ml ice-cold MilliQ water which provided for approximately 200 μg protein per 100 μl aliquot. Competition assays were performed in duplicate in a final volume of 200 μl Krebs-HEPES buffer containing […] Tris buffer (pH 7.5 at 4° C.). […] After a 90 minute incubation at 4° C., reactions were terminated by dilution of the samples with 3 ml of ice-cold Krebs-HEPES buffer followed immediately by filtration through Whatman GF/B glass fiber filters (presoaked in 0.5% polyethyleneimine) using a Brandel Cell Harvester. Filters were rinsed three times with 3 ml of ice-cold Krebs-HEPES buffer, transferred to scintillation vials, and 5 ml scintillation cocktail (Research Products International Corp., Mt. Prospect, Ill.) added. […] Binding parameters were determined using the weighted, least squares non-linear regression.

α4β2* nAChRs = α4β2* nAChRs (Rattus norvegicus, UniProt P09483+P12390); settings: read-out: [^3H]Nicotine Binding Ki
Sequence of α4β2* nAChRs (P09483 31-630): as the sequence (P09483 31-630) above
Sequence of α4β2* nAChRs (P12390 25-500): as the sequence (P12390 25-500) above
Protocol: (§1) Whole brain, excluding cortex and cerebellum, was homogenized in 20 ml of ice-cold buffer, containing (in mM): 2 HEPES, 11.8 NaCl, 0.48 KCl, 0.25 CaCl2 and 0.12 MgSO4, pH 7.5. Homogenate was centrifuged (25,000 g, 15 minutes, 4° C.). Pellets were resuspended in 20 ml of buffer and incubated at 37° C., for ten minutes, cooled to 4° C. and centrifuged (25,000 g, 15 minutes, 4° C.). Pellets were resuspended and centrifuged using the same conditions. Final pellets were stored in assay buffer, containing (in mM): 20 HEPES, 118 NaCl, 4.8 KCl, 2.5 CaCl2, and 1.2 MgSO4) pH 7.5 at −70° C. Upon use, final pellets were resuspended in ˜20 ml assay buffer. […] Control was in the absence of analog. […] Incubations proceeded for 60 minutes at room temperature using 96-well plates and were terminated by harvesting on Unifilter-96 GF/B filter plates presoaked in 0.5% polyethylenimine, using a Packard FilterMate harvester.
(§2) After washing five times with 350 μl ice-cold assay buffer, filter plates were dried (60 minutes, 49° C.), bottom-sealed, and filled with Packard's MicroScint 20 cocktail (40 μl/well). After 60 minutes, filter plates were top-sealed, and radioactivity determined using a Packard TopCount. Protein concentrations were determined using bovine serum albumin as the standard.
(§3) Whole brain was homogenized in 20 ml of ice-cold buffer (in mM: 2 HEPES, 11.8 NaCl, 0.48 KCl, 0.25 CaCl2, and 0.12 MgSO4, pH 7.5). Homogenates were centrifuged (25,000 g, 15 minutes, 4° C.). Pellets were resuspended in 20 ml of buffer and incubated at 37° C., for 10 minutes, cooled to 4° C. and centrifuged (25,000 g, 15 minutes, 4° C.). Pellets were resuspended and centrifuged again using the same conditions. Final pellets were stored at −70° C. in assay buffer (in mM: 20 HEPES, 118 NaCl, 4.8 KCl, 2.5 CaCl2, and 1.2 MgSO4, pH 7.5). Upon use, final pellets were resuspended in ˜20 ml assay buffer. […] Control was in the absence of analog. […] Incubation proceeded for 60 minutes at room temperature using 96-well plates and was terminated by harvesting on Unifilter-96 GF/B filter plates, presoaked in 0.5% polyethylenimine, using a Packard FiterMate harvester. After washing 5× with 350 μl ice-cold assay buffer, filter plates were dried (60 minutes, 49° C.), bottom-sealed, and filled with Packard's MicroScint 20 cocktail (40 μl/well). After 60 minutes, filter plates were top-sealed, and radioactivity determined. Protein concentration was determined using BSA as the standard.

[3] = system: nAChR subtypes mediating nicotine-evoked [^3H]-dopamine overflow
Protocol: [^3H]-Dopamine overflow from superfused striatal slices. […] Striatal coronal slices (500 μm, 4-6 mg) were obtained and incubated for 30 minutes in Krebs' buffer (in mM: 118 NaCl, 4.7 KCl, 1.2 MgCl2, 1 NaH2PO4, 1.3 CaCl2, 11.1 glucose, 25 NaHCO3, 0.11 L-ascorbic acid and 0.004 disodium EDTA, pH 7.4, saturated with 95% O2/5% CO2) in a metabolic shaker at 34° C. Slices were incubated with 0.1 μM (final concentration) of [^3H]-dopamine during the latter 30 minutes of the 60-minute incubation period. Each slice was transferred to a glass superfusion chamber maintained at 34° C. and superfused (1 ml/min) with Krebs' buffer containing nomifensine (10 μM) and pargyline (10 μM) to inhibit [^3H]-dopamine reuptake after release into the extracellular space, ensuring that [^3H]-overflow primarily represented [^3H]-dopamine. Sample collection (5-minute; 5 mL) began after 60 minutes of superfusion. […] At the end of the experiment, each slice was solubilized, and the [^3H]-content of the tissue determined. Release during each minute was normalized for total tissue [^3H]-content. Analog-induced intrinsic activity and inhibitory activity were determined using slices from the same rat (repeated-measures design).
The amount of [^3H] in each sample was calculated by dividing the total [^3H] collected in each sample by the total in the tissue at the time of sample collection (defined as fractional release). […] Data were analyzed by weighted, least squares regression analysis of the sigmoidal concentration-effect curves to obtain EC50 and IC50 values.
Striatal slices (500 μm, 4-6 mg) were incubated for 30 minutes in Krebs' buffer (in mM: 118 NaCl, 4.7 KCl, 1.2 MgCl2, 1 NaH2PO4, 1.3 CaCl2, 11.1 glucose, 25 NaHCO3, 0.11 L-ascorbic acid and 0.004 disodium EDTA, pH 7.4, saturated with 95% O2/5% CO2) in a metabolic shaker at 34° C. Slices were incubated with 0.1 μM (final concentration) [^3H]DA during the latter 30 minutes of the 60-minute incubation period. Each slice was transferred to a glass superfusion chamber maintained at 34° C. and superfused (1 ml/min) with Krebs' buffer containing nomifensine (10 μM) and pargyline (10 μM) to inhibit [^3H]DA reuptake and metabolism, respectively, after release into the extracellular space, ensuring that [^3H]overflow primarily represents [^3H]DA. Sample collection (5-minute; 5 ml) began after 60 minutes of superfusion. […] Thus, the ability of these analogs to elicit intrinsic activity (evoke [^3H]DA overflow) was determined. At the end of the experiment, each slice was solubilized and [^3H]content of the tissue determined. Release during each minute was normalized for total [^3H]content of the slice. Analog-induced intrinsic activity and inhibitory activity were determined using slices from the same rat (repeated-measures design).
Fractional release was calculated by dividing the total tritium collected in each sample by the total tritium in the tissue at the time of sample collection. […] Typically, data were analyzed by weighted, least squares regression analysis of sigmoidal concentration-effect curves to obtain EC50 and IC50 values.

[^3H]DA Uptake = [^3H]DA uptake inhibition (Table 11); format: biochemical
α7* nAChRs = α7* nAChRs (Rattus norvegicus, UniProt Q05941); settings: read-out: [^3H]MLA Binding Ki
Sequence of α7* nAChRs (Q05941 23-502): as the sequence (Q05941 23-502) above
Protocol: as §1, §2, §3

[4] = system: nAChR mediating nicotine-evoked [^3H]DA release (α3β2* receptor subtype); format: cell-based, rat; settings: read-out: IC50, S-(−)-nicotine-evoked [^3H]DA release
Protocol: Slices were rinsed with 15 mL of fresh buffer and incubated for an additional 30 minutes in fresh buffer containing 0.1 μM [^3H]DA (6 slices/3 ml). Subsequently, slices were rinsed with 15 ml of fresh buffer and transferred to a glass superfusion chamber.
Radioactivity in the superfusate and tissue samples was determined by liquid scintillation spectroscopy. […] Basal [^3H]outflow was calculated from the average of the tritium collected in the two five minute samples just before addition of the bis-alkyl pyridino analog. […] [^3H]Overflow was calculated by subtracting the [^3H]outflow during an equivalent period of prestimulation from the values in samples collected during and after drug exposure. Inasmuch as the radiolabelled compounds were not separated and identified, the tritium collected in superfusate is referred to as either [^3H]outflow or [^3H]overflow, rather than as [^3H]DA.

[5] = target: T1, α7-type neuronal nicotinic acetylcholine receptors; format: binding; settings: for Ki: read-out: Ki, [^3H]MLA binding
Protocol: Rat brain was dissected into the whole brain tissue without cortex, striatum and cerebellum and was frozen in liquid nitrogen and stored at −70° C. until use.
The brain tissue was homogenized with a Tekmar Polytron (setting 40) in 20 volumes of ice-cold hypotonic buffer (2 mM HEPES, 14.4 mM NaCl, 0.15 mM KCl, 0.2 mM CaCl2 and 0.1 mM MgSO4, pH=7.5). The homogenate was incubated at 37° C. for ten minutes and centrifuged at 25,000×g for 15 minutes at […] The pellet was washed three times more by resuspension in the 20 volumes of the same buffer and centrifugation at the above parameters. The final pellet was stored at −20° C. under 4.6 ml of the incubation buffer and was suspended just before the incubation with radioligand.
[^3H]MLA (25.4 Ci/mmol) was purchased from Tocris Cookson Ltd., Bristol, U.K. Binding was performed in duplicate, in a final volume of 250 μl of the incubation medium, containing 20 mM HEPES, 144 mM NaCl, 1.5 mM KCl, 2 mM CaCl2, 1 mM MgSO4 and 0.05% BSA, pH=7.5. Reaction was initiated by the addition of 100 μl of membrane suspension to the samples containing a desired concentration of test compounds and […] [^3H] MLA (final concentration) and incubated for 2 hours at room temperature. […] The binding reaction was terminated by dilution of samples with 3 ml of ice-cold incubation buffer followed by immediate filtration through presoaked in 0.5% polyethylenimine glass fiber filters (S&S, grade #32) using a Brandel harvester system. Filters were rinsed three times with 3 ml of ice-cold buffer, transferred to scintillation-vials and 4 ml of scintillation cocktail was added. Protein was measured using the Bradford dye-binding procedure with bovine serum albumin as the standard.

[6] = rat striatal membranes, 3 nM [^3H]-nicotine
[7] = read-out: Nicotine-evoked [^3H]DA Overflow IC50, Table 11
[8] = read-out: Nicotine-evoked [^3H]DA Overflow IC50, Table 7, mean (standard error)
[9] = rat striatal slices, nicotine 10 μM
[10] = rat brain membranes, […] [^3H]-MLA
[11] = read-out: Nicotine-evoked [^3H]DA Overflow IC50, Table 10, mean (standard error)

Molecule | Ki [1] | Ki [2, 6] | Ki (α4β2* nAChRs; Table 11) | IC50 [3, 7] | Ki ([^3H]DA Uptake) | Ki (α7* nAChRs; Table 11) | IC50 [4, 9] | further results
c1ccc2c[n+](CCCCCCCCCCCC[n+]3ccc4ccccc4c3)ccc2c1 [bIQDDB, N,N′-Dodecane-1,12-diyl-bis-isoquinolinium Dibromide] | 12300 nM | > 100000 nM | 6100 ± 730 nM | 7 ± 3 nM | 270 ± 70 nM | 2210 ± 250 nM |  | 
CN1CCC[C@H]1c1ccc[n+](CCCCCCCCCCCC[n+]2cccc([C@@H]3CCCN3C)c2)c1 [bNDDB, N,N′-Dodecane-1,12-diyl-bis-nicotinium Dibromide] |  | 1430 nM | 1950 ± 190 nM | 40 ± 20 nM | 43200 ± 14900 nM |  | 4370 nM | Ki (α4β2* nAChRs; Table 7, mean (standard error)): 1950 nM; IC50 [3, 8]: 170 nM
[Br-].[Br-].c1cc[n+](CCCCCCCCCCCC[n+]2ccccc2)cc1 [bPDDB, N,N′-Dodecane-1,12-diyl-bis-pyridinium Dibromide] | 35600 nM | 9140 nM | 9150 ± 170 nM | 1000 ± 380 nM | > 100000 nM | 33000 ± 4600 nM | 1000 nM | Ki (α4β2* nAChRs; Table 7, mean (standard error)): 9150 nM; binding affinity in the [^3H]MLA assay [5]: moderate binding affinity; IC50 [3, 8]: 1000 nM; Ki (α7* nAChRs; Table 7, mean (standard error)): 33000 nM
c1ccc2c(c1)ccc[n+]2CCCCCCCCCCCC[n+]1cccc2ccccc21 [bQDDB, N,N′-Dodecane-1,12-diyl-bis-quinolinium Dibromide] | 1570 nM |  |  | 21 ± 10 nM | 3860 ± 220 nM | 1610 ± 210 nM | 20 nM | 
N,N′-Dodecane-1,12-diyl-bis-picolinium Dibromide [bPiDDB] |  | 33000 nM | 48600 ± 17200 nM | 5 ± 3 nM | > 100000 nM | > 100000 nM | 5 nM | Ki (α4β2* nAChRs; Table 10, mean (standard error)): 49000 nM; Ki [5, 10]: > 100000 nM; affinity for nAChR subtype mediating nicotine-evoked [^3H]DA overflow compared to α4β2* and α7* nAChRs [3]: 4-5 orders of magnitude; maximal inhibition (Imax) of nicotine-evoked [^3H]DA overflow [3]: 60%; potency relative to DHβE in inhibiting nicotine-evoked [^3H]DA overflow [3]: approximately 320 fold; IC50 ([3]; read-out: IC50, inhibition of nicotine-evoked [^3H]dopamine release/overflow): 5 nM; IC50 [3, 11]: 5 nM
N,N′-Hexane-1,6-diyl-bis-picolinium; Diiodide [bPiHxI] |  |  |  |  |  |  |  | Ki [2]: > 100000 nM; Ki [5]: > 100000 nM; IC50 ([3]; read-out: Nicotine-evoked [^3H]DA Overflow IC50): 1660 nM; IC50 [4]: 1660 nM
N,N′-Nonane-1,9-diyl-bis-picolinium Dibromide [bPiNB] |  |  |  |  |  |  |  | Ki [2]: 66700 nM; Ki (α4β2* nAChRs): 80000 nM; Ki [5]: > 100000 nM
N,N′-Octane-1,8-diyl-bis-picolinium Diiodide [bPiOI] |  | > 100000 nM |  |  |  |  | 10 nM | Ki [5, 10]: > 100000 nM; IC50 [3, 11]: 10 nM
